According to patent US12239661B2, “Methods and compositions for treating undesired implanted tissue filler” (priority 2019, dated 2025):
Marks after values point to notes of the source that are not given here.

Tests used:
[1] = In vivo CT of filler nodule volume, density and 3D shape after test solutions 0-8 (Example 3); details: for Change in Volume as percent of Injected Volume, Day 14/15: Example 3 (Day 14); for Change in Volume as percent of Injected Volume, Day 14/15 / Change in Volume as percent of Injected Volume, Day 0 + 2 h / Change in Volume as percent of Injected Volume, Day 0 + 4 h / Change in Volume as percent of Injected Volume, Day 1 / Change in Volume as percent of Injected Volume, Day 3 / Change in Volume as percent of Injected Volume, Day 7 / Change in Volume as percent of Injected Volume, Day 0 + 1 h 15: mean; for Change in Volume as percent of Injected Volume, Day 0 + 2 h / Change in Volume as percent of Injected Volume, Day 0 + 4 h / Change in Volume as percent of Injected Volume, Day 1 / Change in Volume as percent of Injected Volume, Day 3 / Change in Volume as percent of Injected Volume, Day 7 / Change in Volume as percent of Injected Volume, Day 0 + 1 h 15: Example 3; for Change in Volume as percent of Injected Volume, Day 0 + 1 h 15: 1.5 mL solution into 500 μl nodule; for effect on volume at the filler injection site: after 7 and 14 days, vs untreated
Description: One hour after filler injections (T=1 h), 1.5 mL of selected solutions (Table 5, solutions 0-8, test items, solution 0 is normal saline and not hyperosmotic) were injected each into 9 dermal filler nodules in the right flank (ventral area).
A total of 7 CT-scans were performed at 1 h 15, 2 h, 4 h, 1 day (24 h), 3, 7 and 14 days after injection of the dermal filler. The clinical state of each animal is assessed once a week by body weight measurement and clinical observations.
The 10 SC injections of dermal filler on Day 0 were performed in the ventral area, (five nodules on each flank of the ventral area) for each pig. For each SC nodule, a theoretical volume of 500 μl was administered. One hour (±5 min) after injection of dermal filler, SC injection of the different solutions (prepared the day before) were performed into nine (9) nodules of dermal. For each SC nodule, a theoretical volume of 1.5 mL of test solution was administered.
The X-ray computed tomography acquisitions were performed with the Computed Tomography Scanner BrightSpeed 16 (General Electric). In order to measure the volume and the mean density and to visualize the 3D shape of the dermal filler (Radiesse® filler with or without test solution) injected, in vivo CT-scans were performed on Day 0: 1 h 15 (±10 min), 2 h (±15 min) and 4 h (±20 min), on Day 1 (24 h+1 h), Day 3, Day 7 and Day 14.
During CT acquisition on Day 0, the pigs received an IM injection of anesthesia. The animals were maintained under anesthesia until the CT acquisition at T=2 h (2 h after dermal filler injection session). Between these CT acquisitions, the animals were under surveillance in the recovery room on a heating mat with fluidotherapy. At the end of the CT acquisition at T=2 h, the pigs received a tattoo around each injected site. During the CT acquisitions at T=4 h and on Days 1, 3, 7 and 14, pigs received an IM injection of anesthesia. For the CT-scans, animals were positioned in dorsal recumbency and acquisitions were centered on the injection sites. The parameters of the CT-scan are described in Table 5.
The CT acquisition was analyzed with the software Avizo version 9.2.0. The objective of this analysis was to assess the degradation over time of the dermal filler injected by SC route after injection of different test solutions.
An image segmentation processing was performed on each CT acquisition. First, a manual pre-segmentation was performed around each nodule in order to roughly isolate the voxels corresponding to dermal filler product, which defined a Region of Interest (ROI). Second, an automatic segmentation was applied on the previously defined ROI using a global grey level thresholding procedure.
On day 0, a farm pig received ten (10) SC injections of Radiesse® dermal filler 0.5 mL (ventral area) (10 nodules in total). One hour after filler injections (T=1 h), 1.5 mL of one of eight test hyperosmotic solutions (1-8 solutions, Table 5) was injected at an injection site. One injection site was untreated and one injection site was treated with normal saline (0.9% wt/v NaCl).

[2] = X-ray CT of volume, mean density and 3D shape of Radiesse nodules and injected hyperosmotic solutions (Example 4); assay type: in vivo, Pig (Sus scrofa domesticus)
Description: Pigs are injected by SC route with Radiesse® filler without Lidocaine (Test item). One hour after the Radiesse® filler injection, selected different hyperosmotic solutions are injected by SC route into the dermal filler nodules. For two Radiesse® filler nodules per pig, no additional product is injected; these nodules are used as controls.
The evolution over time of the volume and mean density of the Radiesse® filler nodules with injection of the different solutions are assessed by CT-scanner at selected time points: on Day 0, at about 1 hour (h) and 15 minutes (min), 2 h and 4 h after the Radiesse® filler injection and solution injection, and then, on Day 1 (about 24 h after Radiesse® filler injection), Day 3, Day 7 and Day 15.
On Day 0, 4 pigs received ten (10) SC injections of Radiesse® dermal filler (P20WK-EE-01) of about 500 μl/nodule in the flank (ventral area) at T=0. One hour after Radiesse® dermal filler injections (T=1 h), about 1.5 ml of different hyperosmotic solutions (P20WK-EE-02 to P20WK-EE-05) were each injected into 8 Radiesse® filler nodules. Two Radiesse® filler nodules per animal were not injected with hyperosmotic solution and served as controls.
A total of 7 CT-scans were performed at 1 h 15±10 min, 2 h±15 min, 4 h±20 min, 1 day (24 h±1 h), 3, 7 and 15 days after injection of the dermal filler, as described in FIG. 9A.
On Day 0 (TO), 10 SC injections of test item P20WK-EE-01 (Radiesse® dermal filler) were performed in the ventral area (five nodules on each flank of the ventral area). For each SC nodule, a theoretical volume of 500 μL was administered. One hour (±5 min) after injection of dermal filler, SC injections of the different solutions (prepared on Day −3) were performed into 8 nodules of dermal filler. For each injection of solution, a theoretical volume of 1.5 mL was administered (see, e.g., injection scheme in Table 11).
In order to measure the volume, the mean density and to visualize the 3D shape of the dermal filler SC injected (in presence or absence of different hyperosmotic solutions), in vivo CT-scans were performed on Day 0: 1 h 15 (±10 min), 2 h (±15 min) and 4 h (±20 min), on Day 1 (24 h±1 h), Day 3, Day 7 and Day 15.
The CT acquisitions are analyzed with the software Avizo version 9.2.0. The objective of this analysis was to assess the dispersion over time of the Radiesse® dermal filler injected by SC route after injection of different hyperosmotic solutions.
To achieve this goal, the evolution of these parameters is observed over time: • the volume of each nodule (Radiesse® dermal filler and solution separately), • the mean density of each nodule (Radiesse® dermal filler and solution separately), • the 3D shape of each nodule by visualization of the 3D model of each nodule at each time point (Radiesse® dermal filler with or without solution separately). Segmentation:
An image segmentation is performed on each CT acquisition on the […] reconstruction. At first, a manual pre-segmentation is performed around each nodule in order to roughly isolate the voxels corresponding to Radiesse® dermal filler and hyperosmotic solutions and defined a Region of Interest (ROI). Secondly, an automatic segmentation is applied on the ROI previously defined using a global grey level thresholding procedure. […] Similarly, all the voxels having a grey level between these HU values are selected in a ROI and corresponds to the pure solution or solution containing some dispersed Radiesse® dermal filler (see, FIG. 10).
Then, a 3D model of these selected voxels (see, FIG. 11) is obtained allowing the calculation of the total volume (in mm^3) and the mean density (in HU) of the two defined compartments of each nodule of Pure Radiesse® dermal filler and of each solution containing or not containing dispersed Radiesse® dermal filler.
The volume (in mm^3) of the ROI of Radiesse® dermal filler and the solutions corresponding to each nodule and the mean density (in HU) of each nodule are calculated at each time point.

[3] = listed as Hyperosmotic Saline (sol 1)

| SMILES | Change in Volume as percent of Injected Volume, Day 14/15 [1] | Change in Volume as percent of Injected Volume, Day 0 + 2 h [1] | Change in Volume as percent of Injected Volume, Day 0 + 4 h [1] | Change in Volume as percent of Injected Volume, Day 1 [1] | Change in Volume as percent of Injected Volume, Day 3 [1] | Change in Volume as percent of Injected Volume, Day 7 [1] | Change in Volume as percent of Injected Volume, Day 0 + 1 h 15 [1] | further results |
| --- | --- | --- | --- | --- | --- | --- | --- | --- |
| O.O.O=P([O-])(O)O.[Na+] [sol 2, Sodium dihydrogen phosphate dihydrate] | 179.72* percent | 151.58% | 164.27% | 198.42% | 201.11% | 201.97% | 156.57% |  |
| CC(=O)[O-].[Na+] [sol 3, Sodium acetate] | 176.61* percent | 154.89% | 165.88% | 202.12% | 197.50* percent | 189.13* percent | 152.73% |  |
| OC[C@H]1O[C@@](CO)(O[C@H]2O[C@H](CO)[C@@H](O)[C@H](O)[C@H]2O)[C@@H](O)[C@@H]1O [sol 8, Sucrose] | 180.45% | 167.63% | 190.95% | 202.96% | 207.85% | 199.72% | 167.87* percent | effect on volume at the filler injection site [1]: trend to decrease volume of filler |
| OCC(O)CO [sol 6, Glycerol] | 173.93* percent | 156.43% | 184.92% | 200.32% | 197.65* percent | 197.62* percent | 151.48% |  |
| [Cl-].[Na+] [sol 1, Sodium chloride] |  |  |  |  |  |  |  | Change in Volume as percent of Injected Volume, Day 14/15 [1, 3]: 175.89* percent; Change in Volume as percent of Injected Volume, Day 0 + 1 h 15 [1, 3]: 161.28* percent; Change in Volume as percent of Injected Volume, Day 0 + 2 h [1, 3]: 157.58%; Change in Volume as percent of Injected Volume, Day 0 + 4 h [1, 3]: 164.59* percent; Change in Volume as percent of Injected Volume, Day 1 [1, 3]: 202.75%; Change in Volume as percent of Injected Volume, Day 3 [1, 3]: 199.27%; Change in Volume as percent of Injected Volume, Day 7 [1, 3]: 192.06* percent; effect on volume at the filler injection site ([1]; listed as hyperosmotic NaCl): significant decreased volume |
| O.O.O=C([O-])CC(O)(CC(=O)[O-])C(=O)[O-].[Na+].[Na+].[Na+] [sol 9, Sodium citrate, dihydrate] |  |  |  |  |  |  |  | Change in Volume as percent of Injected Volume, Day 14/15 ([2]; Example 4 (Day 15), mean): 1969%; Change in Volume as percent of Injected Volume, Day 0 + 1 h 15 ([2]; Example 4, mean): 1488%; Change in Volume as percent of Injected Volume, Day 0 + 2 h ([2]; Example 4, mean): 1571%; Change in Volume as percent of Injected Volume, Day 0 + 4 h ([2]; Example 4, mean): 1901%; Change in Volume as percent of Injected Volume, Day 1 ([2]; Example 4, mean): 2210%; Change in Volume as percent of Injected Volume, Day 3 ([2]; Example 4, mean): 2010%; Change in Volume as percent of Injected Volume, Day 7 ([2]; Example 4, mean): 2243%; average of the mean density of solution nodules, T=1 h 15 ([2]; between −100 HU and 250 HU): 18.4±7.0 HU; average of the mean density of solution nodules, T=2 h ([2]; between −100 HU and 250 HU): 2.1±7.9 HU; mean volume of solution with potential dispersed Radiesse, T=2 h ([2]; between −100 HU and 250 HU): 4319.7±989.2 mm^3; variation of the average of the mean density of solutions, Day 15 compared to T=1 h 15 ([2]; between −100 HU and 250 HU): 347.7%; average of the mean density of nodules, Day 1 ([2]; pure Radiesse >250 HU): 447.0±34.1 HU; average of the mean density of nodules, Day 3 ([2]; pure Radiesse >250 HU): 478.2±64.8 HU |
| O.O.O.O.O.O.O.O=S(=O)([O-])[O-].[Mg+2] [sol 5, Magnesium sulfate heptahydrate] | 186.95% | 159.33% | 158.84* percent | 188.43% | 206.26* percent | 202.32% | 170.49* percent |  |
